The nature of data set [1]: in vitro. The note with it: human, uninfected SupT1 cells.
In data set [2] the test system is MHC-I surface expression in uninfected SupT1 cells. In words: Increase of MHC-I surface expression in uninfected SupT1 cells (mean-MHC-I EC50, FIG. 6A). The data set is classed as cell-based. The note with it: Homo sapiens, SUP-T1, 24 h with compound, read-out: EC50 for MHC-I increased surface expression. How it is done:
In some instances, the effect of small molecules in modulation of surface MHC-I was monitored in uninfected (rather than HIV-infected) Sup-T1 cells (FIG. 6A). In these experiments uninfected SupT1 cells were incubated with the compounds for 24 h and then the increase in MHC-I surface expression was monitored by staining cells with the biotinylated HLA-A2/28 antibody (One Lambda, clone BIH0037), washed and then incubated with streptavidin conjugated with APC (Streptavidin APC, EBiosciences, 17-4317) to reveal the anti-HLA-A2 bound antibody. After washing the cells again they were fixed with 0.5% paraformaldehyde and submitted to flow cytometry to determine the levels of MHC-I surface expression (APC fluorescence) in live cells (as estimated by FS/SS in these cells). […] From these assays “mean-MHC-I” EC50 values were generated to indicate the concentration of compound that augments the mean surface levels of MHC-I to 50% of the highest levels accomplished by the compound, as compared to cells treated with vehicle alone. […] Therefore, both assays: inhibition of MHC-I downmodulation in HIV infected SupT1 cells, or increase in surface MHC-I in uninfected SupT1 cells, were indistinctively used to monitor the potency of the compounds to modulate surface expression of MHC-I in SupT1 cells.
Table 7 show the activity of selected compounds utilizing the assay in which the increase of MHC-I surface expression in uninfected SupT1 cells was evaluated, as shown in FIG. 6A. The EC50 for MHC-I increased surface expression was determined using the methods described in Example 2 and illustrated in FIG. 6A.

The subject of data set [3] is downmodulation of MHC-I molecules expressed on the surface of HIV infected SupT1 cells. Briefly: cells. As to conditions: for activity at 100 µM: Human immunodeficiency virus 1, SUP-T1, read-out: R1 @ 100 μM (R1 value for MHC-I downmodulation as % of the vehicle control).
Data set [4] has as its system surface MHC-I in uninfected SupT1 cells (GFP-negative). Briefly: Surface MHC-I in GFP-negative (uninfected) SupT1 cells of cultures treated with HIV-1 (FIG. 4). It counts as cell-based. The note with it: dose-dependent. How it is done: FIG. 4 represents the levels of expression of surface MHC-I in uninfected SupT1 cells (GFP-negative) incubated with vehicle alone (0.1% DMSO) or with compounds #40, #53, #54, #56 or #100 at different concentrations. Values are shown as the percentage of the MHC-I expression observed in cells treated with 0.1% DMSO alone. All samples were incubated with HIV-1 reporter virus (NL4.3-GFP) except those shown as ΔNef, which are shown for reference and were treated with nef-defective virus.
To determine whether the inhibitors of MHC-I downmodulation are specific for HIV infection a study to determine whether the compounds also interfere with expression of MHC-I in uninfected cells was undertaken. The effect of the same compounds was evaluated in SupT-1 cells treated with HIV-1 as shown before, but this time the levels of expression of MHC-I were obtained in GFP-negative cells (FIG. 4). […] The increase was dose-dependent and compounds elevated MHC-I levels by as much as 70% (as compared to cells treated with vehicle alone).

[5] abbreviates: Human immunodeficiency virus 1, SUP-T1, read-out: EC50 for inhibition of MHC-I downmodulation utilizing the R1 parameter.

Molecules are shown by their SMILES. Like-named read-outs stand apart in the source and are kept apart here.

Consider `CC1(C)Cc2cccc(OC(Cc3ccccc3)C(=O)Nc3nc4c(s3)CCCC4)c2O1` (racemic) [Compound 171, (±)-2-((2,2-Dimethyl-2,3-dihydrobenzofuran-7-yl)oxy)-3-phenyl-N-(4,5,6,7-tetrahydrobenzo[d]thiazol-2-yl)propanamide], for which the CC50 in data set [1] was above 125 µM. In data set [2], the EC50 was found to be 6.2 µM.
The matching figures for `Cc1nc(NC(=O)C(Cc2ccccc2)Oc2cccc3c2OC(C)(C)C3)ccc1C1CC1` (racemic) [Compound 172, (±)-N-(5-Cyclopropyl-6-methylpyridin-2-yl)-2-((2,2-dimethyl-2,3-dihydrobenzofuran-7-yl)oxy)-3-phenylpropanamide]: above 125 µM and 8.4 µM.
For the compound `CN(C(=O)COc1cccc2c1OC(C)(C)C2)c1nc2c(s1)CCCC2` [Compound 53, 2-((2,2-Dimethyl-2,3-dihydrobenzofuran-7-yl)oxy)-N-methyl-N-(4,5,6,7-tetrahydrobenzo[d]thiazol-2-yl)acetamide], the EC50 in data set [3] (setting [5]) turned out to be 0.003 µM; in data set [2], 0.012 µM. This compound returned a CC50 in data set [1] above 125 µM. For the same compound, the CC50 at 48 h in data set [1] was above 125 µM. The “surface levels of MHC-I in uninfected cells” value in data set [4] is listed as “increased the surface levels of MHC-I in uninfected cells”.
As to `CC1(C)Cc2cccc(OCC(=O)Nc3nc4c(C#N)cccc4s3)c2O1` [Compound 100, N-(4-cyanobenzo[d]thiazol-2-yl)-2-((2,2-dimethyl-2,3-dihydrobenzofuran-7-yl)oxy)acetamide], the EC50 came to 0.07 µM in data set [3] (Human immunodeficiency virus 1, SUP-T1, 24 h, read-out: EC50 for R1 (inhibition of MHC-I downmodulation)) and 0.07 µM in data set [3] (setting [5]). The compound further registered a cytotoxic concentration (CC50) at 48 h in data set [1] of 0.1 µM. Further, the “surface levels of MHC-I in uninfected cells” value in data set [4] is reported as “increased the surface levels of MHC-I in uninfected cells”.
The compound `CC1(C)Cc2cccc(OCC(=O)N(CC(F)(F)F)c3nc4c(s3)CCCC4)c2O1` [Compound 164, 2-((2,2-Dimethyl-2,3-dihydrobenzofuran-7-yl)oxy)-N-(4,5,6,7-tetrahydrobenzo[d]thiazol-2-yl)-N-(2,2,2-trifluoroethyl)acetamide] displayed a CC50 in data set [1] above 125 µM. The EC50 in data set [2] was 0.026 µM.
Compound `O=C(COc1cccc2[nH]ccc12)N(CC(F)(F)F)c1nc2c(s1)CCCC2` [Compound 165, 2-((1H-Indol-4-yl)oxy)-N-(4,5,6,7-tetrahydrobenzo[d]thiazol-2-yl)-N-(2,2,2-trifluoroethyl)acetamide] yielded a CC50 in data set [1] above 125 µM. Moreover, in data set [2], the EC50 is 1 µM.
On to `CC1(C)Cc2cccc(OCC(=O)N(CC(F)(F)F)c3nc4c(s3)COCC4)c2O1` [Compound 166, N-(6,7-Dihydro-4H-pyrano[4,3-d]thiazol-2-yl)-2-((2,2-dimethyl-2,3-dihydrobenzofuran-7-yl)oxy)-N-(2,2,2-trifluoroethyl)acetamide], for which the CC50 in data set [1] is above 125 µM. Besides, the EC50 in data set [2] came out at 0.2 µM.
The matching figures for `Cc1nc(NC(=O)COc2cccc3c2OC(C)(C)C3)ccc1C1CC1` [Compound 167, N-(5-Cyclopropyl-6-methylpyridin-2-yl)-2-((2,2-dimethyl-2,3-dihydrobenzofuran-7-yl)oxy)acetamide]: above 125 µM and 0.47 µM.
In turn, `Cc1nc(NC(=O)COc2cccc3c2OC(C)(C)C3)ccc1C#N` [Compound 168, N-(5-Cyano-6-methylpyridin-2-yl)-2-((2,2-dimethyl-2,3-dihydrobenzofuran-7-yl)oxy)acetamide] displayed a CC50 in data set [1] above 125 µM. For the same compound, the EC50 in data set [2] was above 25 µM.
The matching figures for `Cc1cc(C)nc(NC(=O)COc2cccc3c2OC(C)(C)C3)c1` [Compound 169, 2-((2,2-Dimethyl-2,3-dihydrobenzofuran-7-yl)oxy)-N-(4,6-dimethylpyridin-2-yl)acetamide]: above 125 µM and above 25 µM.
The matching figures for `Cc1cccnc1CN(C(=O)COc1cccc2c1OC(C)(C)C2)c1ccc(C2CC2)c(C)n1` [Compound 170, N-(5-Cyclopropyl-6-methylpyridin-2-yl)-2-((2,2-dimethyl-2,3-dihydrobenzofuran-7-yl)oxy)-N-((3-methylpyridin-2-yl)methyl)acetamide]: above 125 µM and 1 µM.
The matching figures for `CC1(C)Cc2cc(C(F)(F)F)cc(OCC(=O)Nc3nc4c(s3)CCCC4)c2O1` [Compound 173, 2-((2,2-Dimethyl-5-(trifluoromethyl)-2,3-dihydrobenzofuran-7-yl)oxy)-N-(4,5,6,7-tetrahydrobenzo[d]thiazol-2-yl)acetamide]: above 125 µM and 2.5 µM.
In the case of `Cc1nc(NC(=O)COc2cc(C(F)(F)F)cc3c2OC(C)(C)C3)ccc1C1CC1` [Compound 174, N-(5-Cyclopropyl-6-methylpyridin-2-yl)-2-((2,2-dimethyl-5-(trifluoromethyl)-2,3-dihydrobenzofuran-7-yl)oxy)acetamide], the half-maximal cytotoxic concentration (CC50) in data set [1] was above 125 µM. Besides, the EC50 in data set [2] turned out to be 2.5 µM.
As to `COc1ccccc1OCC(=O)Nc1nc2c(Cl)cccc2s1` [Compound 188, N-(4-Chlorobenzo[d]thiazol-2-yl)-2-(2-methoxyphenoxy)acetamide], the EC50 in data set [3] (setting [5]) is at least 10 µM. In addition, the activity at 100 µM in data set [3] worked out at 37%. In data set [1], the CC50 was above 100 µM and the CC50 at 48 h was above 100 µM.
With `COc1ccccc1OCC(=O)Nc1nc2c(C)cccc2s1` [Compound 189, 2-(2-Methoxyphenoxy)-N-(4-methylbenzo[d]thiazol-2-yl)acetamide], in data set [3] (setting [5]), the EC50 was above 25 µM. The activity at 100 µM in data set [3] is 39%. Moreover, in data set [1], the CC50 was above 100 µM and the 50% cytotoxic concentration (CC50) at 48 h is above 100 µM.
With `COc1ccccc1OCC(=O)Nc1nc(C)cs1` [Compound 190, 2-(2-Methoxyphenoxy)-N-(4-methylthiazol-2-yl)acetamide], the EC50 in data set [3] (setting [5]) is above 25 µM. In data set [3], the activity at 100 µM amounted to 34%. In data set [1], this compound yielded a CC50 above 100 µM and a CC50 at 48 h above 100 µM.
With `COc1ccccc1OCC(=O)Nc1nc2cc(C)c(C)cc2s1` [Compound 191, N-(5,6-Dimethylbenzo[d]thiazol-2-yl)-2-(2-methoxyphenoxy)acetamide], the EC50 in data set [3] (setting [5]) was above 25 µM. The activity at 100 µM in data set [3] stood at 62%. In data set [1], this compound registered a CC50 above 100 µM and a CC50 at 48 h above 100 µM.
As to `COc1ccccc1OCC(=O)Nc1nc2c(F)cccc2s1` [Compound 192, N-(4-Fluorobenzo[d]thiazol-2-yl)-2-(2-methoxyphenoxy)acetamide], the EC50 in data set [3] (setting [5]) came out at 1.8 µM. In data set [1], this compound displayed a CC50 at 48 h above 10 µM.
With `COc1ccccc1OCC(=O)Nc1nc2c(Br)cccc2s1` [Compound 193, N-(4-Bromobenzo[d]thiazol-2-yl)-2-(2-methoxyphenoxy)acetamide], the EC50 in data set [3] (setting [5]) was above 25 µM. The activity at 100 µM in data set [3] stood at 58%. Moreover, in data set [1], the half-maximal cytotoxic concentration (CC50) was above 90 µM and the CC50 at 48 h was above 90 µM.
Consider `COc1ccccc1CCC(=O)Nc1nc2c(s1)CCCC2` [Compound 194, 3-(2-Methoxyphenyl)-N-(4,5,6,7-tetrahydrobenzo[d]thiazol-2-yl) propanamide], for which the EC50 in data set [3] (setting [5]) was found to be 1.7 µM. For the same compound, it took 125 µM to reach half-maximal cytotoxicity in data set [1] (CC50 at 48 h).
The matching figures for `CC1(C)Cc2cccc(OCC(=O)Nc3nc4c(s3)CCCC4)c2O1` [Compound 195, 2-((2,2-Dimethyl-2,3-dihydrobenzofuran-7-yl)oxy)-N-(4,5,6,7-tetrahydrobenzo[d]thiazol-2-yl)acetamide]: 0.053 µM and above 125 µM.
As for `COc1ccccc1OCC(=O)Nc1nc2cc(F)ccc2s1` [Compound 196, N-(5-Fluorobenzo[d]thiazol-2-yl)-2-(2-methoxyphenoxy)acetamide], the EC50 in data set [3] (setting [5]) was above 25 µM. For the same compound, in data set [3], the activity at 100 µM amounted to 31%. For the same compound, in data set [1], the CC50 is above 100 µM and the cytotoxic concentration (CC50) at 48 h was above 100 µM.

Values taken from patent publication US20220411419A1, “SMALL MOLECULE MODULATORS OF MHC-I” (RetroVirox, Inc., priority 2018, published 2022).
